Our source for the EC50 and CC50 values is patent US20250066358A1, “Inhibitors of Menin-MLL Interaction” (Bala Therapeutics, Inc., priority 2021, published 2025).

The target of data set [1] is T1, recombinant MEN1 protein and fluorescein-labeled MLL4-43 peptide (Homo sapiens, UniProt O00255).
T1 construct: purchased Creativebiomart MEN1-35H
T1 sequence (O00255 1-610): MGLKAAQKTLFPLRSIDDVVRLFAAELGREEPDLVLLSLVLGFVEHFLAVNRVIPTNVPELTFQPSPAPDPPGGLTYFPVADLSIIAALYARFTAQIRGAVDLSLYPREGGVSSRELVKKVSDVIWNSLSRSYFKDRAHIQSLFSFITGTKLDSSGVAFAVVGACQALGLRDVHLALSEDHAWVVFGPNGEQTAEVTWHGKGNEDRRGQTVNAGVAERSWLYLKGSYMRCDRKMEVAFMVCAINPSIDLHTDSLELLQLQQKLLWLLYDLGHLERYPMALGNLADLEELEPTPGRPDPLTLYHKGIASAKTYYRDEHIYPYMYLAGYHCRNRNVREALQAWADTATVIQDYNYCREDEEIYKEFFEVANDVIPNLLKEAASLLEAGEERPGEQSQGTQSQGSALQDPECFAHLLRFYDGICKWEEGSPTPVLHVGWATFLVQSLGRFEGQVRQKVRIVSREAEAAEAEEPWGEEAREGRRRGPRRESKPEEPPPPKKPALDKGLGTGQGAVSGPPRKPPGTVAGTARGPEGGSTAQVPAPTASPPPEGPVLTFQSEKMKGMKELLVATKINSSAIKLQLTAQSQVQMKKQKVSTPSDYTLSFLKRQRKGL
Nature of the data set: Primary fluorescence polarization assay of MEN1 / MLL4-43 interaction inhibition. It is filed as binding. The following applies: MEN1 10 nM, MLL4-43 0.5 nM, 1 hour at room temperature. As for the experimental part: Compound activity was determined using recombinant MEN1 protein (Creativebiomart, Cat #MEN1-35H) and a custom fluorescein-labeled MLL4-43 peptide (Eton Bioscience Inc.). Interaction between MEN1 and MLL4-43 in the presence of compounds was determined by fluorescence polarization assay using a Microplate Reader ClarioStar Plus. The reaction was carried out in assay buffer (50 mM TRIS-HCl PH 7.4-7.6, 50 mM NaCl, 1 mM DTT, 0.1 mg/ml BSA). The compounds were dispensed on a 384 well Diamond Well Plate (Axigen, Cat #P-384-120 SQ-C—S) using the Biomek FX liquid handling system at 100× solutions of compounds in DMSO. 2× MEN1 mix (final concentration of MEN1 10 nM) was prepared in Assay buffer and 10 μl of mixture per well was added into 384w white Reaction plate with NBS(Corning, Cat #4513). 10 μl of Assay buffer w/o MENI was used for negative control. Plates were centrifuged for 1 min at 100 g. Next step the Compounds were added to Reaction plate using Biomek station via following steps: 3 μl of 100× compounds (in DMSO) were mixed thoroughly with 27 μl Assay Buffer, then 2 μl of this mixture was added to Reaction plate with 10 μl of MENI mix. Plates were centrifuged for 1 min at 100 g and incubated for 20 min at room temperature. Next 8 μL of MLL4-43 peptide per well was added to final concentration of MLL 0.5 nM. Plates were incubated for 1 hour at room temperature. Then fluorescence polarization was measured using Microplate Reader.

A short description of data set [2]: HEK293 Cellular Growth Inhibition Assay (CellTiter-Glo). Format: cell-based. The settings on record: human, HEK293 cells, 7 days of incubation. On the procedure: (§1) HEK293 (Institute of Cytology Russian Academy of Science), MV4-11 (ATCC, CRL-9591), MOLM-13 (AcceGen, ABC-TC517S) were seeded at a density of 500 cells per well (HEK293) and 2000 cells per well (MV4-11, MOLM-13) in a 384-well clear bottom plate (Greiner Cat #781090) in 45 μl total volume of DMEM (PanEco, Cat #C420, Russia) or RPMI (PanEco, Cat #C330, Russia) with 10% FBS(HyClone Cat #SV30160.03). HEK293 were allowed to adhere overnight at 37° C., 5% CO2. 500× compounds solutions in DMSO (Sigma Cat #D2650) were prepared into Cmpnds plate (Diamond Well Plate, Axigen, Cat #P-384-120 SQ-C—S) and DMSO only control was included. 1 μl of 500× compounds (Cmpnds plate) was added to 49 μl of culture medium into Dilution plate (Diamond Well Plate, Axigen, Cat #P-384-120 SQ-C—S), mixed and then 5 μl of 10× compounds solutions were transferred to cells followed by centrifugation at 100 g for 1 min. Final DMSO concentration was 0.2%. After 3 days of incubation, 10 μl of 1× compounds were added to cells. After 7 days of incubation, 12 μl of CellTiter-Glo (Promega, CAT #G7572) were added to the cells, plate was centrifuged at 100 g for 1 min and luminescence signal was measured using Microplate Reader (CLARIOStar).
(ATP-based viability assays read luminescence as a measure of living cells.)

In a further data set the test system is MV4-11. Put plainly: MV4-11 Cellular Growth Inhibition Assay (CellTiter-Glo). Format: cell-based. The settings on record: Homo sapiens, 168 h, MV4-11 cells, 7 days of incubation. On the procedure: as §1
Another data set has as its system MOLM-13. Nature of the data set: MOLM-13 Cellular Growth Inhibition Assay (CellTiter-Glo). It is filed as cell-based. The settings on record: Homo sapiens, 168 h, MOLM-13 cells, 7 days of incubation. As for the experimental part: as §1

A value given as a limit tells only on which side of the number the result lay.

`CCS(=O)(=O)N[C@H]1CC[C@H](CN2CCC3(CC2)CCN(c2ncnc4ccc(CC(F)(F)F)cc24)CC3)CC1` [Compound 3, N-((1R,4R)-4-((9-(6-(2,2,2-trifluoroethyl)quinazolin-4-yl)-3,9-diazaspiro[5.5]undecan-3-yl)methyl)cyclohexyl)ethanesulfonamide]: in data set [1], the half-maximal effective concentration (EC50) lay in the range of 0.5 to 1 µM. In addition, the CC50 at 7 days in data set [2] fell in the range of 5 to 15 µM. Besides, the CC50 with MV4-11 lay in the range of 5 to 10 µM; with MOLM-13, 10 to 20 µM.
For `FC(F)(F)Cc1ccc2ncnc(N3CC4(CCN(Cc5ccc6[nH]ccc6c5)CC4)C3)c2c1` [Compound 90, 4-(7-((1H-indol-5-yl)methyl)-2,7-diazaspiro[3.5]nonan-2-yl)-6-(2,2,2-trifluoroethyl)quinazoline], in data set [1], the half-maximal effective concentration (EC50) lay within 0.5 to 1 µM. This compound gave a cytotoxic concentration (CC50) at 7 days in data set [2] of 5 to 15 µM. Besides, the CC50 lay in the range of 2.5 to 5 µM with MV4-11 and 5 to 10 µM in the data set on MOLM-13.
As to `CCS(=O)(=O)N[C@H]1CC[C@H](CN2CCC3(CC2)CN(c2ncnc4ncc(CC(F)(F)F)cc24)C3)CC1` [Compound 65, N-(1R,4R)-[4-[[2-[6-(2,2,2-trifluoroethyl)pyrido[2,3-d]pyrimidin-4-yl]-2,7-diazaspiro[3.5]nonan-7-yl]methyl]cyclohexyl]ethanesulfonamide], in data set [1], the EC50 fell in the range of 0.075 to 0.5 µM. In data set [2], the CC50 at 7 days is above 50 µM. Also, the CC50 with MV4-11 is 1 to 2.5 µM; with MOLM-13 it was 1 to 5 µM.
Consider `CCS(=O)(=O)Nc1ccc(CN2CC3(CCN(c4ncnc5ccc(CC(F)(F)F)cc45)CC3)C2)cc1` [Compound 43, N-(4-((7-(6-(2,2,2-trifluoroethyl)quinazolin-4-yl)-2,7-diazaspiro[3.5]nonan-2-yl)methyl)phenyl)ethanesulfonamide], for which the EC50 in data set [1] lay in the range of 1 to 5 µM. Also, in data set [2], the CC50 at 7 days is 15 to 30 µM. For the same compound, the half-maximal cytotoxic concentration (CC50) in the data set on MV4-11 and in the data set with MOLM-13 was 5 to 10 µM each time.
With `CCS(=O)(=O)Nc1cccc(CN2CCC3(CC2)CN(c2ncnc4ccccc24)C3)c1` [Compound 23, N-(3-((2-(quinazolin-4-yl)-2,7-diazaspiro[3.5]nonan-7-yl)methyl)phenyl)ethanesulfonamide], in data set [1], the EC50 was above 5 µM.
Same read-out and setting: in the case of `CCN(C[C@H]1CC[C@H](NS(=O)(=O)CC)CC1)c1ccc(CN2CCC3(CC2)CN(c2ncnc4ccc(CC(F)(F)F)cc24)C3)cc1` [Compound 100, N-((1R,4R)-4-((ethyl(4-((2-(6-(2,2,2-trifluoroethyl)quinazolin-4-yl)-2,7-diazaspiro[3.5]nonan-7-yl)methyl)phenyl)amino)methyl)cyclohexyl)ethanesulfonamide] it was 1 to 5 µM; in that of `CCS(=O)(=O)Nc1ccc(CN2CCC3(CC2)CN(c2ncnc4ncccc24)C3)cc1` [Compound 24, N-[4-[(2-pyrido[2,3-d]pyrimidin-4-yl-2,7-diazaspiro[3.5]nonan-7-yl)methyl]phenyl]ethanesulfonamide], above 5 µM.
On the same count and under the same terms, under `c1ccc(CCc2ccc3ncnc(N4CC5(CCNCC5)C4)c3c2)cc1` [Compound P148, 4-(2,7-Diazaspiro[3.5]non-2-yl)-6-(2-phenylethyl)quinazoline] stands above 5 µM; under `N#Cc1cc(CN2CCC3(CC2)CN(c2ncnc4ccc(CC(F)(F)F)cc24)C3)ccc1F` [Compound 102, 2-fluoro-5-((2-(6-(2,2,2-trifluoroethyl)quinazolin-4-yl)-2,7-diazaspiro[3.5]nonan-7-yl)methyl)benzonitrile], 1 to 5 µM; under `CCS(=O)(=O)N1CCc2cc(CN3CCC4(CC3)CN(c3ncnc5ccc(CC(F)(F)F)cc35)C4)ccc2C1` [Compound 110, 4-(7-((2-(ethylsulfonyl)-1,2,3,4-tetrahydroisoquinolin-6-yl)methyl)-2,7-diazaspiro[3.5]nonan-2-yl)-6-(2,2,2-trifluoroethyl)quinazoline], 0.075 to 0.5 µM.
For `CCS(=O)(=O)N[C@H]1CC[C@H](CN2CCC3(CC2)CN(c2ncnc4ccc(CCc5nc(C)no5)cc24)C3)CC1` [Compound 63, N-((1R,4R)-4-((2-(6-(2-(3-methyl-1,2,4-oxadiazol-5-yl)ethyl)quinazolin-4-yl)-2,7-diazaspiro[3.5]nonan-7-yl)methyl)cyclohexyl)ethanesulfonamide], in data set [1], the EC50 fell in the range of 1 to 5 µM.
Still for that read-out and setting: in the case of `CCS(=O)(=O)N[C@H]1CC[C@H](CN2CCC3(CC2)CCN(c2ncnc4cc(CC(F)(F)F)ccc24)CC3)CC1` [Compound 4, N-((1R,4R)-4-((9-(7-(2,2,2-trifluoroethyl)quinazolin-4-yl)-3,9-diazaspiro[5.5]undecan-3-yl)methyl)cyclohexyl)ethanesulfonamide] it was 1 to 5 µM; in that of `CCS(=O)(=O)NC1CCc2cc(CN3CCC4(CC3)CN(c3ncnc5ccc(CC(F)(F)F)cc35)C4)cc(F)c2C1` (racemic) [Compound 77, rac-(R)-N-(8-fluoro-6-((2-(6-(2,2,2-trifluoroethyl)quinazolin-4-yl)-2,7-diazaspiro[3.5]nonan-7-yl)methyl)-1,2,3,4-tetrahydronaphthalen-2-yl)ethanesulfonamide], 1 to 5 µM; in that of `CCS(=O)(=O)Nc1ccc(CN2CCC(Nc3ncnc4cc(CC(F)(F)F)ccc34)CC2)cc1` [Compound 33, N-(4-((4-((7-(2,2,2-trifluoroethyl)quinazolin-4-yl)amino)piperidin-1-yl)methyl)phenyl)ethanesulfonamide], above 5 µM.
Take `CCS(=O)(=O)N1CCc2ccc(CN3CCC4(CC3)CN(c3ncnc5ccc(CC(F)(F)F)cc35)C4)cc2C1` [Compound 111, 4-(7-((2-(ethylsulfonyl)-1,2,3,4-tetrahydroisoquinolin-7-yl)methyl)-2,7-diazaspiro[3.5]nonan-2-y1)-6-(2,2,2-trifluoroethyl)quinazoline]: in data set [1], the EC50 lay in the range of 1 to 5 µM.
As for `CCS(=O)(=O)Nc1ccc(CN2CCC3(CC2)CCN(c2ncnc4cc(CC(F)(F)F)ccc24)CC3)cc1` [Compound 2], the EC50 in data set [1] is above 5 µM. This compound had a CC50 at 7 days in data set [2] of 15 to 30 µM. The same compound returned a cytotoxic concentration (CC50) in the data set on MV4-11 above 10 µM.
Regarding `CCS(=O)(=O)Nc1ccc(CN2CCC3(CC2)CN(c2nc(NC)nc4ncccc24)C3)cc1` [Compound 31], the EC50 in data set [1] was above 5 µM.
Regarding `CCS(=O)(=O)Nc1ccc(CN2CCC3(CC2)CN(c2ncnc4ccccc24)C3)cc1` [Compound 21, N-(4-((2-(quinazolin-4-yl)-2,7-diazaspiro[3.5]nonan-7-yl)methyl)phenyl)ethanesulfonamide], the EC50 in data set [1] was above 5 µM.
On the same count and under the same terms, under `CCS(=O)(=O)Nc1ccc(CN2CCC3(CC2)CN(c2ncnc4ccc(CC(F)(F)F)cc24)C3)cc1C(=O)NCCN1CCOCC1` [Compound 92, 2-(ethylsulfonamido)-N-(2-morpholinoethyl)-5-((2-(6-(2,2,2-trifluoroethyl)quinazolin-4-yl)-2,7-diazaspiro[3.5]nonan-7-yl)methyl)benzamide] stands above 5 µM.

In general, EC50 refers to the concentration needed to bring the measured effect to its halfway point. For orientation: CC50 means the concentration giving 50% cytotoxicity. A low value points to harm at low concentration.
